Marks after values point to notes of the source that are not given here.
Tests used:
[1] = system: PC9 (De119/T790M/C797S) nude mice xenograft model; test: In vivo efficacy research experiment A (compound 242); design: species or system BALB/c-nu mice; settings: for Tumor volume (mm^3): mean ± standard error
Protocol: To evaluate the antitumor activity and toxic side effects of compound 242 orally administered for 21 days in PC9 (De119/T790M/C797S) nude mice xenograft model.
(§1) BALB/c-nu mice, female, SPF grade, purchased from Beijing Vital River Laboratory Animal Technology Co., Ltd.
(§2) PC9 (De119/T790M/C797S) cells, constructed by Qilu Pharmaceutical Co., Ltd.
(§3) PC9 (De119/T790M/C797S) cells were cultured in RPMI 1640 medium containing 10% FBS at 37° C. in a 5% carbon dioxide incubator; cells in exponential growth phase were collected and inoculated.
Under sterile conditions, PC9 (De119/T790M/C797S) cell suspension cultured in vitro was taken, the cell concentration was adjusted to 5×10^7 cells /mL after centrifugation, and subcutaneously inoculated under the right armpit of mice (0.1 mL/ mouse). The day of inoculation was set as day 0.
a, When the average tumor volume was about 180 mm^3, 24 mice with moderate tumor volume were selected and randomly divided into 3 groups according to the tumor volume: G1: solvent control group, G2: compound 242 (25 mg/kg) and G3: compound 242 (75/50 mg/kg), 8 mice/group.
(§4) b, After animals were grouped, administration was started, and the administration volume was 10 mL/kg, administered orally (po); administered by weight once a day for 21 consecutive days; tumor diameter was measured twice a week.
(§5) c, Tumor volume (TV): the tumor volume was measured twice a week to observe the volume change and growth rate of the tumor. Tumor volume V=½×a×b^2, where a and b represent the long and short diameters of the tumor, respectively. The growth inhibition effect of the compounds on tumor tissue was evaluated by tumor growth inhibition rate TGI (%). […] The data of the administration group and the negative control group were taken on the same day.
(§6) d, During the experiment, the living conditions of the mice, including appearance signs, general behavior, mental state, food intake, respiratory state, feces and urine characteristics, local injection site and other toxicity manifestations, were closely observed.
(§7) e, After the experiment reached the end point, the mice were euthanized, and the animal carcasses were frozen in a freezer and handed over to a qualified medical waste disposal unit for disposal.

[2] = system: EGFR wild-type cell line A431; test: Cell proliferation inhibition experiment (CellTiter-Glo), A431; format: cell-based; settings: Homo sapiens, A-431, 72 h, A431 cells, Cell Titer-Glo, read-out: A431 EGFR WT IC50
Outline: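 Luminescent CellTiter-Glo readout, 30 min at room temperature, after 72 h compound exposure at 37° C., 5% CO2 with 0.1% DMSO final. EGFR wild-type A431 cells were seeded at 800 per well and grown 24 h before dosing. IC50 derived from the dose-response.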

[3] = molecular target: Ba/F3 L858R/T790M/C797S EGFR triple mutant cell line (Homo sapiens, UniProt P00533, T790M/C797S/L858R, cells depend on it); test: Cell proliferation inhibition experiment (CellTiter-Glo), Ba/F3 L858R/T790M/C797S; format: cell-based; settings: 72 hours, Cell Titer-Glo, read-out: Ba/F3 (L858R/T790M/C797S) IC50
[4] = molecular target: T1, L858R/T790M/C797S triple mutant EGFR (Homo sapiens, UniProt P00533, C797S/L858R/T790M); test: Enzymology experiment in vitro (HTRF/FRET kinase activity), L858R/T790M/C797S triple mutant EGFR; format: biochemical; settings: HTRF KinEASE-TK, read-out: EGFR (L858R/T790M/C797S) IC50
T1 construct: purchased Signalchem
Outline: (§8)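 Kinase reaction run 40 min at room temperature with peptide and ATP after a 10 min compound–enzyme preincubation. Phosphorylation read as HTRF signal after 1 h with Eu³⁺ antibody, XL665-streptavidin and EDTA (Cisbio KinEASE-TK).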

wild-type EGFR = molecular target: T2, wild-type EGFR (Homo sapiens, UniProt P00533); test: Enzymology experiment in vitro (HTRF/FRET kinase activity), wild-type EGFR; format: biochemical; settings: HTRF KinEASE-TK, read-out: EGFR (WT) IC50
T2 construct: purchased Signalchem
Outline: as §8

[5] = molecular target: Ba/F3 De119/T790M/C797S EGFR triple mutant cell line (Homo sapiens, UniProt P00533, T790M/C797S, cells depend on it, form not given); test: Cell proliferation inhibition experiment (CellTiter-Glo), Ba/F3 De119/T790M/C797S; format: cell-based; settings: Ba/F3 Del19/T790M/C797S EGFR triple mutant cells, 72 hours, Cell Titer-Glo; read-out: Ba/F3 (Del19/T790M/C797S) IC50
[6] = system: PC9 (De119/T790M/C797S) nude mice xenograft model; test: In vivo efficacy research experiment B (compound 243); design: species or system BALB/c-nu mice; settings: for Tumor volume (mean ± standard error): PC9 (De119/T790M/C797S) xenograft
Protocol: To evaluate the antitumor activity and toxic side effects of compound 243 orally administered for 21 days in PC9 (De119/T790M/C797S) nude mice xenograft model.
as §1, §2, §3
Under sterile conditions, PC9 (De119/T790M/C797S) cell suspension cultured in vitro was taken, the cell concentration was adjusted to 3×10^7 cells/mL after centrifugation, and subcutaneously inoculated under the right armpit of mice (0.1 mL/ mouse). The day of inoculation was set as day 0.
a, When the average tumor volume was about 140 mm^3, 21 mice with moderate tumor volume were selected and randomly divided into […] according to the tumor volume: G1: solvent control group, G2: compound 243 (15 mg/kg) and G3: compound 243 (40 mg/kg), 7 mice/group.
as §4, §5, §6, §7

[7] = 25 mg/kg po once a day for 21 days
[8] = 75 (D1-D6), 50 (D7-D21) mg/kg po once a day
[9] = 15 mg/kg po once a day for 21 days
[10] = 40 mg/kg po once a day for 21 days

T2 sequence (P00533 25-1210): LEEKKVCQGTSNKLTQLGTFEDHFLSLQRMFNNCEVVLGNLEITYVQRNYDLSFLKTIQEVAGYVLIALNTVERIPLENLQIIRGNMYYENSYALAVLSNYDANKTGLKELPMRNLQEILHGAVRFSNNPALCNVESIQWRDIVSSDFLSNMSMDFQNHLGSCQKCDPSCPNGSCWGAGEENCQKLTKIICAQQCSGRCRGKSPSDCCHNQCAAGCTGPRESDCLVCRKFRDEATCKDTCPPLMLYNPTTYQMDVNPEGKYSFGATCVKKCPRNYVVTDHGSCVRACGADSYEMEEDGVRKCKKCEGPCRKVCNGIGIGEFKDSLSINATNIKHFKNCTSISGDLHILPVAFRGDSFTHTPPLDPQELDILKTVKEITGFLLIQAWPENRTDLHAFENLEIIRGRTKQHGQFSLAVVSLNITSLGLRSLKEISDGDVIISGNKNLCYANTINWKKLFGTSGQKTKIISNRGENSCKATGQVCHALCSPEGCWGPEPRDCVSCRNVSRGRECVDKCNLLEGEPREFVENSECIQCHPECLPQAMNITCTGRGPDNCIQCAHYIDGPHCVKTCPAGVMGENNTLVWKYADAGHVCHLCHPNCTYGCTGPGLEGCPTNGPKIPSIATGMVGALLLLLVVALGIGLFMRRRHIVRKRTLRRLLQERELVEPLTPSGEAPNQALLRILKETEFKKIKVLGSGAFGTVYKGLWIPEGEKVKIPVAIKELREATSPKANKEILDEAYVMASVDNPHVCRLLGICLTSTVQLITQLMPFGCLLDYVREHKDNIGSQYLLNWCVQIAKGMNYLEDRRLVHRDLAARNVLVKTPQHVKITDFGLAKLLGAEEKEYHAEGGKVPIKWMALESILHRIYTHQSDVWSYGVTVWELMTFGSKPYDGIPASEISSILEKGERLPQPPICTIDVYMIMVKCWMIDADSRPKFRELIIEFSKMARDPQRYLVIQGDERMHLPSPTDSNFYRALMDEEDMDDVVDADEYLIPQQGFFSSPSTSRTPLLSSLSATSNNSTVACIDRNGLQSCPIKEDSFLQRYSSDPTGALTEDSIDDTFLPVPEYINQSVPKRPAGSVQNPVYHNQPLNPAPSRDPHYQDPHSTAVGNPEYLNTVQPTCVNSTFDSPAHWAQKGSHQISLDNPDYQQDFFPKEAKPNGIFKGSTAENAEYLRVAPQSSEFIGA
T1 sequence (P00533 25-1210 T790M/C797S/L858R): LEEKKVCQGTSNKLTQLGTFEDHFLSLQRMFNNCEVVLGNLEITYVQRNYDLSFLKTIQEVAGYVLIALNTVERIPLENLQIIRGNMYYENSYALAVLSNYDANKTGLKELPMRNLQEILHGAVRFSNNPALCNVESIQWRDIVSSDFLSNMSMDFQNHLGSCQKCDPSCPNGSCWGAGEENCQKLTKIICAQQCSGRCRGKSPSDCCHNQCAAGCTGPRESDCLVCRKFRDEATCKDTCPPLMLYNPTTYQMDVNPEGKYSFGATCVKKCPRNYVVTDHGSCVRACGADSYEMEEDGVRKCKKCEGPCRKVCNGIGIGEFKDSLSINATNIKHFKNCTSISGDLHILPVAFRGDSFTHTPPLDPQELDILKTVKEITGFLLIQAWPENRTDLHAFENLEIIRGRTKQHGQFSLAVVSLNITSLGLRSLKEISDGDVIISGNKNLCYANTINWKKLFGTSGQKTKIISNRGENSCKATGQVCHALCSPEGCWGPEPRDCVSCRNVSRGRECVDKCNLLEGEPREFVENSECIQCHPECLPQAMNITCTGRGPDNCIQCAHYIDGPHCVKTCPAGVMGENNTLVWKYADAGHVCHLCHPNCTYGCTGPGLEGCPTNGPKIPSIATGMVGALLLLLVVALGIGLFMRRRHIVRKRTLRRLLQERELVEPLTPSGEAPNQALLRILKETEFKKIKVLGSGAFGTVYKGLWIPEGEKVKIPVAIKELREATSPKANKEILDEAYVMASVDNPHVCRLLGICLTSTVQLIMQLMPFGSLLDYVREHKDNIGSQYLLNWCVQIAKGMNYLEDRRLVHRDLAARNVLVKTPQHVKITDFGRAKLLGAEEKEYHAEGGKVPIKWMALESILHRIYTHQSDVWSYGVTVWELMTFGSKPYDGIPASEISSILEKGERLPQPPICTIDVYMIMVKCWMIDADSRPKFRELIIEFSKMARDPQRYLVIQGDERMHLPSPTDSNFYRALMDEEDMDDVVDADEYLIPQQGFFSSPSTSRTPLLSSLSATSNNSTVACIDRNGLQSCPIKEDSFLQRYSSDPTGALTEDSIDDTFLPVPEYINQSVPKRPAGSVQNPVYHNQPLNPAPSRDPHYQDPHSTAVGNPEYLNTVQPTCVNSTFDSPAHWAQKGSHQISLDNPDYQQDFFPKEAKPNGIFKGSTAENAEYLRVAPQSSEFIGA
Ba/F3 De119/T790M/C797S EGFR triple mutant cell line, sequence (P00533 with tags, fused parts or gaps DEL746-750/T790M/C797S, form open): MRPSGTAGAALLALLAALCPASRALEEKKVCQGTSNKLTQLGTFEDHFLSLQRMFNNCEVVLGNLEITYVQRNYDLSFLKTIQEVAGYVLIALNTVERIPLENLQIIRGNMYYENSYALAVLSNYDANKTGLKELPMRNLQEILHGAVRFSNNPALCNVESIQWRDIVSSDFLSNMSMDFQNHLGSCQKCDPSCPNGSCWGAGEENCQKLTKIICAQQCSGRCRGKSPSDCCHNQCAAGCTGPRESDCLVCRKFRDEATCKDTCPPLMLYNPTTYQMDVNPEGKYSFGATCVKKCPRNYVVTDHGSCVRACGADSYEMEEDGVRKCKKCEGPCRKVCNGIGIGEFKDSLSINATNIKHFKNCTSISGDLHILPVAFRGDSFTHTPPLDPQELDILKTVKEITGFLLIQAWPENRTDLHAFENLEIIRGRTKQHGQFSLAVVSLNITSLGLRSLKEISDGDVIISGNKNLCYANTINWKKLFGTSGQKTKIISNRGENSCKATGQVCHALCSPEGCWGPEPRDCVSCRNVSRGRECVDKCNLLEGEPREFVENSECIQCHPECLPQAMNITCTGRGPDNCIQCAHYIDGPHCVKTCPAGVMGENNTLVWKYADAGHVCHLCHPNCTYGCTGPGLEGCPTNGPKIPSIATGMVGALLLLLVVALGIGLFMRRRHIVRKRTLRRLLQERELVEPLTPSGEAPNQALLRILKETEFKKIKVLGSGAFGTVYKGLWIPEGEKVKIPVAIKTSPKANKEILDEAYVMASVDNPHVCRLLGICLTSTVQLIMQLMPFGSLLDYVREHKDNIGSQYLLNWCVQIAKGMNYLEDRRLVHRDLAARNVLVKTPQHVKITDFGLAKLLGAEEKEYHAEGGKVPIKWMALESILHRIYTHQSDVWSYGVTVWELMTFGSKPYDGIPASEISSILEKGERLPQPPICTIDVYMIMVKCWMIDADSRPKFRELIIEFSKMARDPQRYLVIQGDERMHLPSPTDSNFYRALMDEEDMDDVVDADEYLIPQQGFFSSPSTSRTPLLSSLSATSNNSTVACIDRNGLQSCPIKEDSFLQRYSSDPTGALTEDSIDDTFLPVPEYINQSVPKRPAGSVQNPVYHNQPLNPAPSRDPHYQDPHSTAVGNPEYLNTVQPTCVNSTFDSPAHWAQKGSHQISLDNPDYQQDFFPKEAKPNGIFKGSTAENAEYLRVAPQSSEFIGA
Ba/F3 L858R/T790M/C797S EGFR triple mutant cell line, sequence (P00533 whole entry T790M/C797S/L858R): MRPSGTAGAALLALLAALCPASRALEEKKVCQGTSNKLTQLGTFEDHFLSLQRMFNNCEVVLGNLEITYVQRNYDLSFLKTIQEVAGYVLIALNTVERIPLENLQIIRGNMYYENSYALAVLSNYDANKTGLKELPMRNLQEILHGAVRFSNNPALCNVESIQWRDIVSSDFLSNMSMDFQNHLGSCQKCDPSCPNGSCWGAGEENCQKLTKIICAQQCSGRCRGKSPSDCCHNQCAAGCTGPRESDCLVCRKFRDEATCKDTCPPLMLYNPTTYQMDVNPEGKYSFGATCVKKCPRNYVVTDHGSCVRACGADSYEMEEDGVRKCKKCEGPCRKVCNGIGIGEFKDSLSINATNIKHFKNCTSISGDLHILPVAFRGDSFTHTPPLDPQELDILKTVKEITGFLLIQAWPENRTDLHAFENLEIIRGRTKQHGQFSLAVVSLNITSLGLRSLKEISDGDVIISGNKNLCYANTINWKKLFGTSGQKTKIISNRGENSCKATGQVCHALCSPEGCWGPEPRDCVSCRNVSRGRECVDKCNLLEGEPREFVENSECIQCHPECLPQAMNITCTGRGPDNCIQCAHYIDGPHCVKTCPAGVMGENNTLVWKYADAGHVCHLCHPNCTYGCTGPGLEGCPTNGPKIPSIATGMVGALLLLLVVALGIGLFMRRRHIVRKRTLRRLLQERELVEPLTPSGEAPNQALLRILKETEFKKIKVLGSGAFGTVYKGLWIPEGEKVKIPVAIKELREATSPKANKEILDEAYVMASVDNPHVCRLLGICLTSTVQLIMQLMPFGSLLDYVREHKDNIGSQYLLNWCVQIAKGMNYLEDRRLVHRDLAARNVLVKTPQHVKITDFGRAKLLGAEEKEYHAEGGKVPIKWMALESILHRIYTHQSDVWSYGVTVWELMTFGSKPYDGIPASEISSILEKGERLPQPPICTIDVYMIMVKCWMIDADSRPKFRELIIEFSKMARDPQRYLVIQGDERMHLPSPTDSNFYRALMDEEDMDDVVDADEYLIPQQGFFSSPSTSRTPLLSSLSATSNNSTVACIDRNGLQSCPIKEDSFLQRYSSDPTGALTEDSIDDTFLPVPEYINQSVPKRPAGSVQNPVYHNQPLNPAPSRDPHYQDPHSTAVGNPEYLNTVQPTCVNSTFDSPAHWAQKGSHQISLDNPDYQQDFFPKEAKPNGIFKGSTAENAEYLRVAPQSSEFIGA

In the case of COc1cc(N2CCC3(CCN(CC4(F)CC4)CC3)CC2)c(-c2cnn(C)c2)cc1Nc1ncc(Br)c(Nc2ccc3nccnc3c2P(C)(C)=O)n1 [compound 242, (6-((5-Bromo-2-((4-(9-((1-fluorocyclopropyl)methyl)-3,9-diazaspiro[5.5]undecan-3yl)-2-methoxy-5-(1-methyl-1H-pyrazol-4-yl)phenyl)amino)pyrimidin-4-yl)amino)quinoxalin-5-yl)dimethylphosphine oxide], the tolerability of mice ([1]; 25 mg/kg and 50 mg/kg doses) is reported as “well tolerated”, the “TGI (%)” value [1, 7] is reported as 102% and the “Weight change (%)” value [1, 7] is reported as 2.4%. For the same compound, the “Tumor volume (mm^3)” value [1, 7] was 139.8 ± 13.7** mm^3, the “tumor growth inhibition (in words)” value ([1]; 25, 75/50 mg/kg) was “significantly inhibit tumor growth” and the “TGI (%)” value [1, 8] was 105%. For the same compound, the “Weight change (%)” value [1, 8] was −3.4%, the “Tumor volume (mm^3)” value [1, 8] was 64.0 ± 11.9** mm^3 and the IC50 [2] was 75.7 nM. It also gave a GI50 [3] of 3.07 nM, an IC50 [4] of 0.4 nM and an IC50 (wild-type EGFR) of 2.4 nM. It also gave a GI50 [5] of 1.36 nM.

With COc1cc(N2CCC3(CC2)CCN(C(C)(C)CF)CC3)c(-c2cnn(C)c2)cc1Nc1ncc(Br)c(Nc2ccc3nccnc3c2P(C)(C)=O)n1 [compound 243, (6-((5-Bromo-2-((4-(9-(1-fluoro-2-methylpropan-2-yl)-3,9-diazaspiro[5.5]undecan-3-yl)-2-methoxy-5-(1-methyl-1H-pyrazol-4-yl)phenyl)amino)pyrimidin-4-yl)amino)quinoxalin-5-yl)dimethylphosphine oxide] the IC50 [2] was 141 nM, the TGI [6, 9] was 81.4% and the Weight change [6, 9] was −0.4%. The “Tumor volume (mean ± standard error)” value [6, 9] was 318.6 ± 38.63** mm^3, the TGI [6, 10] was 110.1% and the Weight change [6, 10] was −6.1%. For the same compound, the “Tumor volume (mean ± standard error)” value [6, 10] was 38.6 ± 5.19** mm^3, the tolerability of mice ([6]; 15, 40 mg/kg) was “well tolerated” and the “tumor growth inhibition (in words)” value ([6]; 15, 40 mg/kg po once a day for 21 days) was “significantly inhibit tumor growth”. For the same compound, the GI50 [3] was 3.95 nM, the IC50 [4] was 0.54 nM and the IC50 (wild-type EGFR) was 4.91 nM. It also gave a GI50 [5] of 1.73 nM.

COc1nc(N2CCC3(CCN(CCF)CC3)CC2)c(-c2cnn(C)c2)cc1Nc1ncc(Br)c(Nc2ccc3nccnc3c2P(C)(C)=O)n1 [compound 249] was tested, and the IC50 [2] was 85 nM, the GI50 [3] was 8.95 nM and the IC50 [4] was 0.4 nM. It also gave an IC50 (wild-type EGFR) of 3.31 nM and a GI50 [5] of 2.55 nM.

— patent US20230219986A1, “NOVEL AMINOPYRIMIDINE EGFR INHIBITOR” (QILU PHARMACEUTICAL CO., LTD., priority 2020, published 2023)
